Literature values as cited in patent publication US6894093B2, “Materials free of endorine disruptive chemicals” (priority 2001, dated 2005).
Where two headings read alike, the source gives them in different places. Values belong to the compound of their own block, whether it stands above or below them.

Tests used:
[1] = set-up: key: Estrogenic (EA); Carcinogenic (CA) Activity; conditions: plastic monomers

endocrine disruptive activity (estrogen receptor (ER); statement in background text): exhibit endocrine disruptive activity
estrogenic activity (estrogen receptor (ER); statement in background text): deleterious estrogenic activity
Compound: CC(C)(c1ccc(O)cc1)c1ccc(O)cc1 [Bisphenol A]
Monomer Exhibits Estrogenic (EA) or Carcinogenic (CA) Activity [1]: EA

Compound: COc1ccc(O)c(C(C)(C)C)c1 [Butylated hydroxyanisole (BHA), Butylated hydroxyanisole]
ADI: 0 to 0.5 mg/kg

Compound: CCCCC(CC)COC(=O)c1ccccc1C(=O)OCC(CC)CCCC (stereo not shown) [DEHP, di(2-ethylhexyl) phthalate]
estrogenic activity (estrogen receptor (ER); statement in background text): estrogen-mimicking

ADI: 0 to 2.5 mg/kg
Compound: CCCOC(=O)c1cc(O)c(O)c(O)c1 [Propyl gallate]

ADI: 0 to 0.2 mg/kg
Compound: CC(C)(C)c1cc(O)ccc1O [Tert-Butylhydroquinone (TBHQ), Tert-Butylhydroquinone]

Compound: C=CCl [Vinylchloride]
Monomer Exhibits Estrogenic (EA) or Carcinogenic (CA) Activity [1]: CA

Compound: (di)Butyl hydroxy toluene [(di)Butyl hydroxy toluene (BHT)]
Predicted Estrogenic Activity (estrogen receptor (ER)): Yes
endocrine disruptive activity (estrogen receptor (ER)): exhibits endocrine disruptive activity
